Test results taken from ChEMBL document CHEMBL3351614, “Discovery of 1a,2,5,5a-tetrahydro-1H-2,3-diaza-cyclopropa[a]pentalen-4-carboxamides as potent and selective CB2 receptor agonists” (Bioorg Med Chem Lett, 2015).

Columns and labels:
[1] = Oral bioavailability in Sprague-Dawley rat at 3 mg/kg; assay type: ADME, organism-based; conditions: in vivo
[2] = Ratio of drug level in brain to plasma in Sprague-Dawley rat at 3 mg/kg, po after 2 hrs; assay type: ADME, organism-based; design: dose 3 mg/kg, route oral; conditions: read-out: BPR
[3] = AUClast in Sprague-Dawley rat at 2 mg/kg, iv and 3 mg/kg, po; assay type: ADME, organism-based; conditions: plasma
[4] = Drug uptake in Sprague-Dawley rat brain at 3 mg/kg, po after 2 hrs; assay type: ADME, organism-based; design: dose 3 mg/kg, route oral; conditions: read-out: Drug uptake
[5] = Volume of distribution at steady state in Sprague-Dawley rat at 2 mg/kg, iv and 3 mg/kg, po; assay type: ADME, organism-based; conditions: in vivo, read-out: Vdss
[6] = Cmax in Sprague-Dawley rat at 2 mg/kg, iv and 3 mg/kg, po; assay type: ADME, organism-based; conditions: in vivo
[7] = Cmax in Sprague-Dawley rat at 3 mg/kg, po after 0.4 hrs; assay type: ADME, organism-based; design: dose 3 mg/kg, route oral; conditions: in vivo
Rattus norvegicus = test: Toxicity in rat assessed as reduction in core temperature at 0.3 mg/kg, ip; assay type: organism-based; design: dose 0.3 mg/kg, route intraperitoneal; conditions: in vivo

CC(C)(CO)NC(=O)c1nn(-c2ccc(F)cc2F)c2c1C[C@H]1C[C@@H]21
bioavailability [1]: 35.9% | Kp at 2 h [2]: 0.356 | AUC(0-t) [3]: 4480 ng·h/mL | concentration at 2 h [4]: 623 ng/g | Vd [5]: 0.851 L/kg | Cmax [6]: 808 ng/mL

CC(C)(NC(=O)c1nn(C(C)(C)C)c2c1C[C@H]1C[C@@H]21)c1ccccc1
Cmax [7]: 33 ng/mL

CCCCCCC(C)(C)c1ccc([C@@H]2C[C@H](O)CC[C@H]2CCCO)c(O)c1 [CP-55940]
T (Rattus norvegicus): > 2 °C
